The results in this text go back to patent publication US9758491B2, “Molecules having pesticidal utility, and intermediates, compositions, and processes, related thereto” (priority 2015, dated 2017).

Assay type in all cases: in vivo
Data set [1] concerns Yellow Fever Mosquito (Aedes aegypti, AEDSAE). The data set can be described thus: Bioassay on Yellow Fever Mosquito (YFM) larvae, 96-well plate. The conditions noted are these: 4000 ppm DMSO master solution diluted, about 1 day-old larvae, room temperature, scored after 3 days. How it is done:
Certain molecules disclosed in this document were tested against YFM using procedures described in the following paragraph. In the reporting of the results, the “YFM Rating Table” was used (See Table Section).
Master plates containing 400 μg of a molecule dissolved in 100 μL of dimethyl sulfoxide (DMSO) (equivalent to a 4000 ppm solution) are used. A master plate of assembled molecules contains 15 μL per well. To this plate, 135 μL of a 90:10 water/acetone mixture is added to each well. A robot (Biomek® NXP Laboratory Automation Workstation) is programmed to dispense 15 μL aspirations from the master plate into an empty 96-well shallow plate (“daughter” plate). There are 6 reps (“daughter” plates) created per master. The created “daughter” plates are then immediately infested with YFM larvae.
The day before plates are to be treated, mosquito eggs are placed in Millipore water containing liver powder to begin hatching (4 g into 400 mL). After the “daughter” plates are created using the robot, they are infested with 220 μL of the liver powder/larval mosquito mixture (about 1 day-old larvae). After plates are infested with mosquito larvae, a non-evaporative lid is used to cover the plate to reduce drying. Plates are held at room temperature for 3 days prior to grading. After 3 days, each well is observed and scored based on mortality. The results are indicated in the table entitled “Table ABC: Biological Results” (See Table Section).

Data set [2] deals with Cabbage Looper (Trichoplusia ni, TRIPNI). The data set can be described thus: Bioassay on Cabbage Looper (CL), 128-well diet tray assay. The conditions noted are these: 168 h, 50 μg/cm^2 on artificial diet, second instar larvae, 25° C., five to seven days, average of eight wells, read-out: CL rating, % Control (or Mortality). How it is done:
(§1) Certain molecules disclosed in this document were tested against BAW and CL using procedures described in the following examples. In the reporting of the results, the “BAW & CL Rating Table” was used (See Table Section).
Bioassays on CL were conducted using a 128-well diet tray assay. One to five second instar CL larvae were placed in each well (3 mL) of the diet tray that had been previously filled with 1 mL of artificial diet to which 50 μg/cm^2 of the test molecule (dissolved in 50 μL of 90:10 acetone-water mixture) had been applied (to each of eight wells) and then allowed to dry. Trays were covered with a clear self-adhesive cover, vented to allow gas exchange, and held at 25° C., 14:10 light-dark for five to seven days. Percent mortality was recorded for the larvae in each well; activity in the eight wells was then averaged. The results are indicated in the table entitled “Table ABC: Biological Results” (See Table Section).

In data set [3] the test system is Beet Armyworm (Spodoptera exigua, LAPHEG). The experiment in a line: Bioassay on Beet Armyworm (BAW), 128-well diet tray assay. The conditions noted are these: 168 h, 50 μg/cm^2 on artificial diet, second instar larvae, 25° C., five to seven days, average of eight wells, read-out: BAW rating, % Control (or Mortality). How it is done: as §1
Bioassays on BAW were conducted using a 128-well diet tray assay. One to five second instar BAW larvae were placed in each well (3 mL) of the diet tray that had been previously filled with 1 mL of artificial diet to which 50 μg/cm^2 of the test molecule (dissolved in 50 μL of 90:10 acetone-water mixture) had been applied (to each of eight wells) and then allowed to dry. Trays were covered with a clear self-adhesive cover, vented to allow gas exchange, and held at 25° C., 14:10 light-dark for five to seven days. Percent mortality was recorded for the larvae in each well; activity in the eight wells was then averaged. The results are indicated in the table entitled “Table ABC: Biological Results” (See Table Section).

`N/C(=N\C(=O)Nc1ccc(-c2ncn(-c3ccc(OC(F)(F)F)cc3)n2)cc1)Nc1ccccc1-c1ccccc1` [F1, (1E)-1-[Amino-(2-phenylanilino)methylene]-3-[4-[1-[4-(trifluoromethoxy)phenyl]-1H-1,2,4-triazol-3-yl]phenyl]urea]: the “YFM rating, % Control (or Mortality)” value in data set [1] was “A (80-100)”. Besides, the mortality at 50 µg/cm2 in data set [2] and in data set [3] was 50 to 100% in each case.
With `N/C(=N\C(=O)Nc1ccc(-c2ncn(-c3ccc(OC(F)(F)F)cc3)n2)cc1)Nc1ccccc1Cc1ccccc1` [F2, (1E)-1-[Amino-(2-benzylanilino)methylene]-3-[4-[1-[4-(trifluoromethoxy)phenyl]-1H-1,2,4-triazol-3-yl]phenyl]urea], the “YFM rating, % Control (or Mortality)” value in data set [1] is on record as “A (80-100)”. Also, the mortality at 50 µg/cm2 in data set [2] and in data set [3] was 50 to 100% throughout.
On to `CCc1ccccc1N/C(N)=N/C(=O)Nc1ccc(-c2ncn(-c3ccc(OC(F)(F)F)cc3)n2)cc1` [F3, (1E)-1-[Amino-(2-ethylanilino)methylene]-3-[4-[1-[4-(trifluoromethoxy)phenyl]-1H-1,2,4-triazol-3-yl]phenyl]urea], for which, in data set [1], the “YFM rating, % Control (or Mortality)” value was “A (80-100)”. Also, the mortality at 50 µg/cm2 in data set [2] and in data set [3] was 50 to 100% throughout.
With `N/C(=N\C(=O)Nc1ccc(-c2ncn(-c3ccc(OC(F)(F)F)cc3)n2)cc1)Nc1ccccc1` [F4, (1E)-1-[amino(anilino)methylene]-3-[4-[1-[4-(trifluoromethoxy)phenyl]-1H-1,2,4-triazol-3-yl]phenyl]urea], the “YFM rating, % Control (or Mortality)” value in data set [1] is “A (80-100)”. For the same compound, the mortality at 50 µg/cm2 in data set [2] and in data set [3] was 50 to 100% each time.
With `Cc1ccccc1N/C(N)=N/C(=O)Nc1ccc(-c2ncn(-c3ccc(OC(F)(F)F)cc3)n2)cc1` [F5, (1E)-1-[Amino-(2-methylanilino)methylene]-3-[4-[1-[4-(trifluoromethoxy)phenyl]-1H-1,2,4-triazol-3-yl]phenyl]urea], the “YFM rating, % Control (or Mortality)” value in data set [1] was “A (80-100)”. The mortality at 50 µg/cm2 in data set [2] and in data set [3] was 50 to 100% in each case.
Regarding `CCCc1ccccc1N/C(N)=N/C(=O)Nc1ccc(-c2ncn(-c3ccc(OC(F)(F)F)cc3)n2)cc1` [F6, (1E)-1-[Amino-(2-propylanilino)methylene]-3-[4-[1-[4-(trifluoromethoxy)phenyl]-1H-1,2,4-triazol-3-yl]phenyl]urea], the “YFM rating, % Control (or Mortality)” value in data set [1] was “A (80-100)”. Further, the mortality at 50 µg/cm2 in data set [2] and in data set [3] was 50 to 100% each time.
On to `Cc1ccc(C)c(N/C(N)=N/C(=O)Nc2ccc(-c3ncn(-c4ccc(OC(F)(F)F)cc4)n3)cc2)c1` [F7, (1E)-1-[Amino-(2,5-dimethylanilino)methylene]-3-[4-[1-[4-(trifluoromethoxy)phenyl]-1H-1,2,4-triazol-3-yl]phenyl]urea], for which the “YFM rating, % Control (or Mortality)” value in data set [1] is “A (80-100)”. Also, the mortality at 50 µg/cm2 in data set [2] and in data set [3] was 50 to 100% throughout.
Regarding `Cc1ccc(N/C(N)=N/C(=O)Nc2ccc(-c3ncn(-c4ccc(OC(F)(F)F)cc4)n3)cc2)c(C)c1` [F8, (1E)-1-[Amino-(2,4-dimethylanilino)methylene]-3-[4-[1-[4-(trifluoromethoxy)phenyl]-1H-1,2,4-triazol-3-yl]phenyl]urea], the “YFM rating, % Control (or Mortality)” value in data set [1] was “A (80-100)”. Further, the mortality at 50 µg/cm2 in data set [2] and in data set [3] was 50 to 100% in each case.
`COc1ccc(N/C(N)=N/C(=O)Nc2ccc(-c3ncn(-c4ccc(OC(F)(F)F)cc4)n3)cc2)c(C)c1` [F9, (1E)-1-[Amino-(4-methoxy-2-methyl-anilino)methylene]-3-[4-[1-[4-(trifluoromethoxy)phenyl]-1H-1,2,4-triazol-3-yl]phenyl]urea]: the “YFM rating, % Control (or Mortality)” value in data set [1] is listed as “A (80-100)”. The mortality at 50 µg/cm2 in data set [2] and in data set [3] was 50 to 100% each time.
As for `CC(C)c1ccccc1N/C(N)=N/C(=O)Nc1ccc(-c2ncn(-c3ccc(OC(F)(F)F)cc3)n2)cc1` [F10, (1E)-1-[Amino-(2-isopropylanilino)methylene]-3-[4-[1-[4-(trifluoromethoxy)phenyl]-1H-1,2,4-triazol-3-yl]phenyl]urea], the “YFM rating, % Control (or Mortality)” value in data set [1] is on record as “A (80-100)”. Moreover, the mortality at 50 µg/cm2 in data set [2] and in data set [3] was 50 to 100% in each case.
As for `Cc1cccc(C)c1N/C(N)=N/C(=O)Nc1ccc(-c2ncn(-c3ccc(OC(F)(F)F)cc3)n2)cc1` [F11, (1E)-1-[amino-(2,6-dimethylanilino)methylene]-3-[4-[1-[4-(trifluoromethoxy)phenyl]-1H-1,2,4-triazol-3-yl]phenyl]urea], in data set [3], the mortality at 50 µg/cm2 lay in the range of 50 to 100%.
For the compound `Cc1cc(Cl)ccc1N1CCN/C1=N\C(=O)Nc1ccc(-c2ncn(-c3ccc(OC(F)(F)F)cc3)n2)cc1` [F12, (E)-1-(1-(4-Chloro-2-methylphenyl)imidazolidin-2-ylidene)-3-(4-(1-(4-(trifluoromethoxy)phenyl)-1H-1,2,4-triazol-3-yl)phenyl)urea], the “YFM rating, % Control (or Mortality)” value in data set [1] is reported as “D (No activity noticed in this bioassay)”. In addition, the mortality at 50 µg/cm2 in data set [2] lay in the range of 50 to 100%; in data set [3] it was 0 to 50%.
For `Cc1ccc(F)cc1N1CCN/C1=N\C(=O)Nc1ccc(-c2ncn(-c3ccc(OC(F)(F)F)cc3)n2)cc1` [F13, (E)-1-(1-(5-Fluoro-2-methylphenyl)imidazolidin-2-ylidene)-3-(4-(1-(4-(trifluoromethoxy)phenyl)-1H-1,2,4-triazol-3-yl)phenyl)urea], the “YFM rating, % Control (or Mortality)” value in data set [1] is given as “D (No activity noticed in this bioassay)”. For the same compound, the mortality at 50 µg/cm2 in data set [2] and in data set [3] was 50 to 100% throughout.
With `CCc1ccccc1N1CCN/C1=N\C(=O)Nc1ccc(-c2ncn(-c3ccc(OC(F)(F)F)cc3)n2)cc1` [F14, (E)-1-(1-(2-Ethylphenyl)imidazolidin-2-ylidene)-3-(4-(1-(4-(trifluoromethoxy)phenyl)-1H-1,2,4-triazol-3-yl)phenyl)urea], the “YFM rating, % Control (or Mortality)” value in data set [1] is listed as “A (80-100)”. Moreover, the mortality at 50 µg/cm2 in data set [2] and in data set [3] was 50 to 100% throughout.
For `Cc1ccc(N2CCN/C2=N\C(=O)Nc2ccc(-c3ncn(-c4ccc(OC(F)(F)F)cc4)n3)cc2)c(C)c1` [F15, (E)-1-(1-(2.4-dimethylphenyl)imidazolidin-2-ylidene)-3-(4-(1-(4-(trifluoromethoxy)phenyl)-1H-1,2,4-triazol-3-yl)phenyl)urea], in data set [1], the “YFM rating, % Control (or Mortality)” value is reported as “A (80-100)”. Also, the mortality at 50 µg/cm2 in data set [2] and in data set [3] was 50 to 100% throughout.
Regarding `O=C(/N=C1\NCCN1c1ccccc1)Nc1ccc(-c2ncn(-c3ccc(OC(F)(F)F)cc3)n2)cc1` [F16, (E)-1-(1-Phenylimidazolidin-2-ylidene)-3-(4-(1-(4-(trifluoromethoxy)phenyl)-1H-1,2,4-triazol-3-yl)phenyl)urea], the “YFM rating, % Control (or Mortality)” value in data set [1] is reported as “A (80-100)”. For the same compound, the mortality at 50 µg/cm2 in data set [2] and in data set [3] was 50 to 100% each time.
Turning to `Cc1cc(C)c(N2CCN/C2=N\C(=O)Nc2ccc(-c3ncn(-c4ccc(OC(F)(F)F)cc4)n3)cc2)c(C)c1` [F17, (E)-1-(1-Mesitylimidazolidin-2-ylidene)-3-(4-(1-(4-(trifluoromethoxy)phenyl)-1H-1,2,4-triazol-3-yl)phenyl)urea], the “YFM rating, % Control (or Mortality)” value in data set [1] is “A (80-100)”. Besides, the mortality at 50 µg/cm2 in data set [2] and in data set [3] was 50 to 100% in each case.
For the compound `COc1ccccc1N1CCN/C1=N\C(=O)Nc1ccc(-c2ncn(-c3ccc(OC(F)(F)F)cc3)n2)cc1` [F18, (E)-1-(1-(2-Methoxyphenyl)imidazolidin-2-ylidene)-3-(4-(1-(4-(trifluoromethoxy)phenyl)-1H-1,2,4-triazol-3-yl)phenyl)urea], the “YFM rating, % Control (or Mortality)” value in data set [1] is recorded as “A (80-100)”. For the same compound, the mortality at 50 µg/cm2 in data set [2] and in data set [3] was 50 to 100% each time.
